From patent publication US11813230B2, “Composition for strengthening skin barrier, moisturizing skin or anti-aging” (COSMAX, INC., priority 2020, dated 2023)

Assays:
Details in all cases: 37° C., 48 up to 72 hours, well color change
[1] = tested on: S. pneumoniae (CX-2); type: cell-based, Streptococcus pneumoniae
Experimental: (§1) To analyze substance utilization by the isolated strains (Streptococcus pneumoniae, Streptococcus infantis, and Streptococcus mitis), tests were conducted in the following manner. BioLOG GP2 and API 50 were used in determining the substance utilization, and testing was performed using testing methods provided by Omnilog and Biomeriuse. The culturing temperature and media suitable to corresponding strains were selected, and 5 among cluster colonies incubated for 48 hours were taken and suspended in reagents before use. The inoculation amount was 150 μl. As the suspension, components of kits provided by various manufacturers were used. When the strains are yet to be inoculated, the suspension is in a transparent liquid phase. Inoculated plates and strips were incubated at 37° C. for 48 hours, and then the incubation of up to 72 hours was examined. Wells were in a transparent liquid phase at the time of inoculating, but the colors of the wells changed to purple or red, and the color-changed wells were determined to be positive.

[2] = tested on: S. infantis (CX-4); assay: Substance utilization (BioLOG GP2 / API 50); type: cell-based, Streptococcus infantis
Experimental: as §1

[3] = tested on: S. mitis (CX-8); assay: Substance utilization (BioLOG GP2 / API 50); type: cell-based, Streptococcus mitis
Experimental: as §1

Row | Compound | substance utilization by S. pneumoniae (CX-2) [1] | substance utilization by S. infantis (CX-4) [2] | substance utilization by S. mitis (CX-8) [3]
1 | O=[Te]([O-])[O-].[K+].[K+] [Potassium Tellurite] | + | + | +
2 | OC[C@H]1O[C@H](OCC2O[C@@H](O)[C@H](O)[C@@H](O)[C@@H]2O)[C@H](O)[C@@H](O)[C@H]1O (stereo partly drawn) [D-Melibiose] | + |  | 
3 | COc1cc(-c2ccc(-n3nc(-c4ccccc4)n[n+]3-c3ccccc3)c(OC)c2)ccc1-n1nc(-c2ccccc2)n[n+]1-c1ccccc1.[Cl-].[Cl-] [Tetrazolium Blue] |  | + | +
4 | OC[C@H]1O[C@H](OC[C@H]2O[C@H](O[C@]3(CO)O[C@H](CO)[C@@H](O)[C@@H]3O)[C@H](O)[C@@H](O)[C@@H]2O)[C@H](O)[C@@H](O)[C@H]1O [D-Raffinose] | + |  | 
5 | Dextrin | + | + | +
6 | O=C1O[C@H]([C@@H](O)CO)[C@@H](O)[C@@H]1O [L-Galactonic Acid Lactone] |  |  | +
7 | O=P(O)(O)OC[C@H]1OC(O)(CO)[C@@H](O)[C@@H]1O (stereo partly drawn) [D-Fructose-6-Po4] |  |  | +
8 | CC(O)C(=O)[O-].[Na+] (stereo not shown) [1% Sodium Lactate, Sodium Lactate] | + | + | +
9 | OC[C@H]1O[C@H](O[C@H]2[C@H](O)[C@@H](O)[C@H](O)O[C@@H]2CO)[C@H](O)[C@@H](O)[C@@H]1O [D-maltose] | + | + | +
10 | D-Salicin |  |  | +
11 | OC[C@H]1O[C@@H](O[C@H]2[C@H](O)[C@@H](O)[C@H](O)O[C@@H]2CO)[C@H](O)[C@@H](O)[C@@H]1O [D-Cellobiose] | + | + | +
12 | Pectin | + | + | +
13 | D-Turanose | + |  | 
14 | [Cl-].[Na+] [1% NaCl, NaCl] | + | + | +
15 | Tween 40 | + | + | 
16 | OC[C@H]1O[C@H](OC[C@H]2O[C@H](OC[C@H]3O[C@H](O[C@]4(CO)O[C@H](CO)[C@@H](O)[C@@H]4O)[C@H](O)[C@@H](O)[C@@H]3O)[C@H](O)[C@@H](O)[C@H]2O)[C@H](O)[C@@H](O)[C@H]1O [Stachyose] | + | + | +
17 | [Cl-].[Li+] [Lithium Chloride] |  |  | +
18 | CO[C@H]1/C=C/O[C@@]2(C)Oc3c(C)c([O-])c4c(O)c(cc(O)c4c3C2=O)NC(=O)/C(C)=C\C=C\[C@H](C)[C@H](O)[C@@H](C)[C@@H](O)[C@@H](C)[C@H](OC(C)=O)[C@@H]1C.[Na+] [Rifamycin SV] |  | + | +
